Reference: patent publication EP0552612A2, “Methods for determining and isolating compounds which bind directly to nucleosolic proteins” (F. HOFFMANN-LA ROCHE AG, priority 1992, dated 1993)
Each block holds one molecule with its values, some of them ahead of it.

Tests used:
[1] = system: retinoic acid receptors α, β or γ; assay: Competitive binding with ³H-T-RA to nucleosol of RAR-transfected COS-1 cells; set-up: species or system human; settings: concentrations as high as 1 µM; 5 nM ³H-T-RA, 4°C, 30 minutes
Protocol: Competitive binding studies were performed as follows. COS-1 cells were transfected with the cDNAs encoding RARs α, β or γ in the expression vector pSG5 (described in Example 1). The cells were cultured for 72 hours and the nucleosol fraction isolated (14). Nucleosol fractions were incubated (14) at 4°C for 30 minutes with 5 nM ³H-T-RA with various concentrations of unlabeled 13-cis RA. Bound was separated from free radioactivity using PD10 columns as described in Example 1 above.

[2] = target: T1, RARα (Homo sapiens, UniProt P10276); assay: Displacement of radiolabel from nucleosol of COS-1 cells treated in culture with ³H-T-RA; settings: excess unlabeled T-RA (10 µM), 4 hours at 4°C
T1 sequence (P10276 1-462): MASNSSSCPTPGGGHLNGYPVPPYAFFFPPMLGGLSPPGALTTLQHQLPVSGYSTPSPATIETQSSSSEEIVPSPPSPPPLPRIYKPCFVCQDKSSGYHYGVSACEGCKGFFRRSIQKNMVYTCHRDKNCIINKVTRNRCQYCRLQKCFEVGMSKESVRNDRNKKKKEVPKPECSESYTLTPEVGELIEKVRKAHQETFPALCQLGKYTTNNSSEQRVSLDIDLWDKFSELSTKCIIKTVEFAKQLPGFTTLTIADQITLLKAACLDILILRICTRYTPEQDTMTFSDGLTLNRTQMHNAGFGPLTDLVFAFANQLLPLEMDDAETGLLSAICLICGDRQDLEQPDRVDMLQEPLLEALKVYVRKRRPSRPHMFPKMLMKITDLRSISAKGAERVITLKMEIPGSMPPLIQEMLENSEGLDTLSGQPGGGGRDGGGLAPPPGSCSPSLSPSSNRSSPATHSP

[3] = target: T1, RARα; assay: In vitro binding of ³H-T-RA to nucleosol of transfected COS-1 cells; settings: nucleosol from RARα-transfected COS-1 cells; 10 nM ³H-T-RA, 2 hours at 4°C

Compound: CC1=C(/C=C/C(C)=C/C=C/C(C)=C\C(=O)O)C(C)(C)CCC1 [13-cis RA, 13-cis retinoic acid]
- competition with ³H-T-RA for binding [1]: minimal competition for binding

Compound: CC1=C(/C=C/C(C)=C/C=C/C(C)=C/C(=O)O)C(C)(C)CCC1 [T-RA, all-trans retinoic acid]
- displacement of bound radiolabel [2]: displaces radioactivity bound in the RARα nucleosol

- binding of ³H-T-RA [3]: considerable binding
Compound: [3H]C(/C=C(C)/C=C/C1=C(C)CCCC1(C)C)=C([3H])\C(C)=C\C(=O)O [³H-T-RA]
